Values of other authors as cited in publication PMC4310808 (European journal of medicinal chemistry, 2014).
No end group written: not given here.

Test system: erythrocytes

GIINTLQKYYCRVRGGRCAVLSCLPKEEQIGKCSTRGRKCCRRKK (also: bicyclic or more (positions not given here)) [HβD-3, Human beta defensin-3]
Hemolytic activity at physiological salt concentrations: no hemolytic activity
